Data on one compound can be found in PMC13128454, “Mutant p53 protein accumulation is selectively targetable by proximity-inducing drugs” (Nature Chemical Biology, 2025).

In one assay the test system is MFE319 cells. The experiment in a line: CellTiter-Glo cell viability. Format: cell-based. The note with it: MFE319. Set-up: p5301_AUC_to_10uM / AUC_rezatapopt: scale not given here. As to the method: (§1) Cells were plated in 384-well plates (typically 1,500 cells per well) with varying concentrations of compounds, with a total volume of 50 μl per well. CTG reagent was added (25 μl) to the solutions, mixed and read out using an EnVision 2105 multimode plate reader.

The target in the next assay is p53-Y220C. Particulars: cited from earlier work.
The next assay has as its system Huh7 cells. The assay is described as follows: CellTiter-Glo cell viability. Format: cell-based. Also on record: AUC_rezatapopt: unit not given beside the values. As to the method:
as §1

The next assay relates to HepG2 cells. The experiment in a line: CellTiter-Glo cell viability. It is filed as cell-based. Set-up: AUC_rezatapopt: unit not given beside the values. As to the method:
as §1
A general note: In ATP-based viability assays light output follows the ATP content of the culture.

A further assay deals with LNCaP cells. The experiment in a line: CellTiter-Glo cell viability. It is filed as cell-based. Also on record: AUC_rezatapopt: unit not given beside the values. Particulars: LNCaP. As to the method: as §1
The test system of a further assay is MCF7 cells. The experiment in a line: CellTiter-Glo cell viability. Format: cell-based. Set-up: AUC_rezatapopt: unit not given beside the values. As to the method: as §1
In another assay the test system is MFE296 cells. The experiment in a line: CellTiter-Glo cell viability. Format: cell-based. Also on record: AUC_rezatapopt: unit not given beside the values. Here is the method: as §1
In another assay the test system is DU145 cells. The assay is described as follows: CellTiter-Glo cell viability. Format: cell-based. Also on record: AUC_rezatapopt: unit not given beside the values. As to the method: as §1
Another assay concerns NUGC-3 cells. The experiment in a line: CellTiter-Glo cell viability. It is filed as cell-based. Set-up: AUC_rezatapopt: unit not given beside the values. The note with it: NUGC3. Here is the method: as §1

Structures are written as SMILES.

The Kd is the constant that tells how readily two partners part at equilibrium. Turning to `CNC(=O)c1ccc(NCC#Cc2cc3c(N[C@@H]4CCN(C)C[C@@H]4F)cccc3n2CC(F)(F)F)c(OC)c1` [rezatapopt], the AUC_rezatapopt in the assay with MFE319 cells is on record as 0.8525; in the assay with Huh7 cells, 0.6525; in the assay with HepG2 cells, 0.9433; in the assay with LNCaP cells, 0.9713; with MCF7 cells it was 0.9331; in the assay with MFE296 cells, 0.5683. Also, the results for the AUC_rezatapopt with DU145 cells and in the assay on NUGC-3 cells were 1 and 0.5908, respectively. Further, the equilibrium dissociation constant (Kd) on p53-Y220C was approximately 2.5 nM.
